Experimental data from patent publication US20210238170A1, “5,5-Difluoro- and 5-Fluoro-5-Methyl-C-Glycoside Derivatives Useful As Dual SGLT1 / SGLT2 Modulators” (Janssen Pharmaceutica NV, priority 2018, published 2021).

Tests used:
human SGLT1 = biological target: T1, human SGLT1 (Homo sapiens, UniProt P13866); assay: SGLT1 in vitro assay: Na-dependent 14C-AMG uptake in CHO-K1 cells stably expressing human SGLT1; assay type: cell-based; conditions: CHO-K1 cells stably expressing human SGLT1, 14C-AMG uptake
T1 construct: expressed in transfected cells
T1 sequence (P13866 1-664): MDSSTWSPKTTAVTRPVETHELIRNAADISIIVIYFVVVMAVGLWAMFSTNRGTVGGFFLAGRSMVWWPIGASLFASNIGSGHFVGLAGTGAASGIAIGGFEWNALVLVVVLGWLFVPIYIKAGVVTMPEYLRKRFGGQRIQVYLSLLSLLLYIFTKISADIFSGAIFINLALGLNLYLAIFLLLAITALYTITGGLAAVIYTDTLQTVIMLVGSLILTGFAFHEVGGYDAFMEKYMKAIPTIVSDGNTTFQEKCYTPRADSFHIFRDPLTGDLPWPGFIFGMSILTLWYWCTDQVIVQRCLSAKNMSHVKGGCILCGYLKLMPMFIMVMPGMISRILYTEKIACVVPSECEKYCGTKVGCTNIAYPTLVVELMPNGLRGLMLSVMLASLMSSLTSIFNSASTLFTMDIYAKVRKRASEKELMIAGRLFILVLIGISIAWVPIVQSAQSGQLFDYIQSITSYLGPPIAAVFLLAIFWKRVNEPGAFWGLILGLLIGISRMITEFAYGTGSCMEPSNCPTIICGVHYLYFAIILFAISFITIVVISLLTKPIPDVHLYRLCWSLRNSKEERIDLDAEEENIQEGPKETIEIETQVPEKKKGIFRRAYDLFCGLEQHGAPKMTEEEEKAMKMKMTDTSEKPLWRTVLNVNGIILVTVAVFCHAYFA
Method in brief: (§1)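 CHO-K1 cells stably expressing human SGLT1 or SGLT2, induced with 10 mM Na-butyrate for 24 h. Compounds (0.001–10 μM) in Na+-containing HEPES/Tris buffer pH 7.4 were applied for 10 min, then 14C-AMG ([…]) for 2 h at 37°C; Na-dependent uptake read by scintillation; %-inhibition or IC50.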

human SGLT2 = biological target: T2, human SGLT2 (Homo sapiens, UniProt P31639); assay: SGLT2 in vitro assay: Na-dependent 14C-AMG uptake in CHO-K1 cells stably expressing human SGLT2; assay type: cell-based; conditions: CHO-K1 cells stably expressing human SGLT2, 14C-AMG uptake
T2 construct: expressed in transfected cells
T2 sequence (P31639 1-672): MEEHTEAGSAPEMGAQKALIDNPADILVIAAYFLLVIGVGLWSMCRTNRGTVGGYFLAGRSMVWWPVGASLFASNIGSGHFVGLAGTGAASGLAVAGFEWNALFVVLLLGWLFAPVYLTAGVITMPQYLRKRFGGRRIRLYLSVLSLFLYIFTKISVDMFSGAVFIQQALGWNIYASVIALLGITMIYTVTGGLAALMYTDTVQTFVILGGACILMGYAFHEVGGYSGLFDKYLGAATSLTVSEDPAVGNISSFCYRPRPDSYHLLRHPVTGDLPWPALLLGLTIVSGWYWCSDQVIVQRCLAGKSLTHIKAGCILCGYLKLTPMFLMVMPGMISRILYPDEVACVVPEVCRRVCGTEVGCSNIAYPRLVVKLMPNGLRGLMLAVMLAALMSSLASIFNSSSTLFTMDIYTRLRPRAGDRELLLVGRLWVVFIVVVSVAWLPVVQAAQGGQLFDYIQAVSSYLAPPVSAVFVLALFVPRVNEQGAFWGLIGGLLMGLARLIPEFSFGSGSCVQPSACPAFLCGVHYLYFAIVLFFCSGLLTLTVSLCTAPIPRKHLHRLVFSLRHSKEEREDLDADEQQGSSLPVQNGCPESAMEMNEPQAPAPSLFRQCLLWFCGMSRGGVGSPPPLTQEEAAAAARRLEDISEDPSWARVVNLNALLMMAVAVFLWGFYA
Method in brief: as §1

SD rats = assay: Oral Glucose Tolerance Test (OGTT) in SD rats: blood glucose excursion AUC and urine glucose excretion; assay type: in vivo, rat; conditions: mean ± SE; for Urine Glucose Excretion (g/0-4 hr): n = 8
Method: Biological Example 2: In Vivo Assay
Oral Glucose Tolerance Test (OGTT) in SD Rats
Overnight fasted SD rats were allocated into vehicle or test compound treatment groups based on their body weights (n=8 in each group). The animals were orally dosed with vehicle or test compound at a volume of 10 ml/kg at 30-minute prior to OGTT. The animals then received an OGTT challenge with 2 g/kg (50% glucose solution at the volume of 4 ml/kg, orally). The animals were immediately transferred into metabolic cages after they were dosed with the glucose. Blood glucose levels were measured at 0 (pre-OGTT), 30, 60, and 120 minutes after OGTT using one-touch Glucometer. Blood glucose excursion AUC (area under the curve of blood glucose) was determined from the blood glucose levels measured at the timepoints.
Table 9 below, presents the measured efficacy of the test compound(s), expressed as the percentage (%) of blood glucose AUC vs that in vehicle group. The data is interpreted such that, the smaller the percentage of blood glucose AUC of compound vs vehicle, the greater the efficacy of the test compound. Urine volume and urine glucose concentrations (tested by using Olympus system with Genzyme diagnostics assay reagent) were measured to determine the urine glucose excretion (UGE) in 4-hr period after OGTT (0-4 hours).

[1] = compounds of formula (I) where R0 is fluoro

- inhibition at 0.3 µM (human SGLT1; @ 0.3 μM, read-out: SGLT1 % Inh @ 0.3 μM): 56.7%
- IC50 (human SGLT1; [1]): 145 nM
- inhibition at 0.3 µM (human SGLT2; @ 0.3 μM, read-out: SGLT2 % Inh @ 0.3 μM): 62.4%
- IC50 (human SGLT2; [1]): 7.2 nM
SMILES: CCc1ccc(Cc2cc([C@@H]3O[C@H](CO)C(F)(F)[C@H](O)[C@H]3O)c(O)c3c2OCC3)cc1 [Compound 30]
- response vs control in vivo at 1 mg/kg (SD rats; Rattus norvegicus, 2 h, oral dose 1 mg/kg, n = 8, read-out: 120-min Blood Glucose AUC vs Vehicle (%)): 86 ± 3.4%
- response vs control in vivo at 3 mg/kg (SD rats; Rattus norvegicus, 2 h, oral dose 3 mg/kg, n = 8, read-out: 120-min Blood Glucose AUC vs Vehicle (%)): 80.3 ± 1.6%
- response vs control in vivo at 10 mg/kg (SD rats; Rattus norvegicus, 2 h, oral dose 10 mg/kg, n = 8, read-out: 120-min Blood Glucose AUC vs Vehicle (%)): 72 ± 2.3%
- Urine Glucose Excretion (g/0-4 hr) (SD rats; oral dose 1 mg/kg): 0.001 ± 0.0001 g/0-4 hr
- Urine Glucose Excretion (g/0-4 hr) (SD rats; oral dose 3 mg/kg): 0.001 ± 0.0002 g/0-4 hr
- Urine Glucose Excretion (g/0-4 hr) (SD rats; oral dose 10 mg/kg): 0.001 ± 0.0002 g/0-4 hr
